Results on two molecules are retold here after US20150190479A1, “DELIVERY OF CHOLESTERYL ESTER TO STEROIDOGENIC TISSUES” (ALPHACORE PHARMA, LLC, priority 2010, published 2015).

What all share (type): in vivo, human
Assay [1] in a line: Adrenal function of a trauma patient under treatment. Particulars: car accident victim; combination of 150 mg/day anacetrapib and LCAT injection (40 mg) every 5 days. The text has this:
The efficacy of a particular dose may be assessed by reference noting the change in HDL-C or improvement in certain physiologic parameters. Suitable physiologic parameters include, but are not limited to, improved cortisol response to ACTH, improved cortisol levels, change in circulating levels of steroids, e.g., corticosteroids, glucocorticoids, cortisol, testosterone, estrogen, decreased inflammatory cytokines, and improved liver function.
A victim of a car accident with abdominal injuries is brought to the hospital. Their HDL is 55 mg/dl. As HDL routinely falls after trauma, the physician prescribes 150 mg/day anacetrapib and an injection of LCAT (40 mg) every 5 days until the patient is fully stabilized. This treatment maintained the patient's HDL at >75 mg/dl throughout their recovery. Adrenal function was maintained.

The nature of assay [2]: Testosterone level and complaints of a patient with low testosterone. To be noted: HDL-C 25 mg/dl, 150 mg/day. As for the experimental part:
A patient complains of lethargy and impotence. Their testosterone levels are low, and their HDL-C is 25 mg/dl. The physician prescribes ancetrapib at a dose of 150 mg/day. […] The patient's original complaints are absent.

Assay [3] can be described thus: HDL-C level of a patient after treatment (illustrative patient examples). Particulars: patient admitted for major surgery, HDL-C 25 mg/dl at admission; LCAT 40 mg given 24 hours prior to surgery. An excerpt: Measurement of biomarker levels and parameters described above may be measured using methods that are well known in the art. For example, change in HDL-CE level is easily detected with standard clinical laboratory procedures. Likewise, measuring the adrenal response to ACTH is commonly used in patients with suspected adrenal insufficiency. One of ordinary skill in the art would understand the significance of the results and may choose to adjust the dose based on assessments such as those described above.
A patient is admitted into the hospital for major surgery. The patients HDL-C level is 25 mg/dl. […] The patient is administered a dose of LCAT of 40 mg 24 hours prior to surgery. The patient's HDL-C is measured prior to surgery, and is now above 50 mg/di, thus greatly reducing risk of infection and/or death following the procedure.
A burn victim is stabilized in the hospital with an HDL-C level of 12 mg/dl. […] The patient is infused with rHDL at a dose of 25 mg/kg over a period of 5 hours, raising the patient's HDL-C by 50 mg/dl. In order to maintain this level of HDL, the patient is administered a 60 mg dose of LCAT. Cortisol levels are monitored periodically to determine if the adrenal function is normalized. […]
A patient is beginning to enter septic shock. […] Cortisol levels are monitored to determine if the adrenal function is normalized. […]

`COc1cc(F)c(C(C)C)cc1-c1ccc(C(F)(F)F)cc1CN1C(=O)O[C@H](c2cc(C(F)(F)F)cc(C(F)(F)F)c2)[C@@H]1C` [anacetrapib]: the adrenal function entry in assay [1] is “maintained”. Further, the “patient's original complaints (lethargy and impotence)” value in assay [2] is “absent”. In assay [2] (rechecked 'For weeks later'), the “testosterone level on recheck” value is “within normal levels”.

B1: lecithin-cholesterol acyltransferase (protein, UniProt P04180 25-440, looked up)
Phosphatidylcholine-sterol …: FWLLNVLFPPHTTPKAELSNHTRPVILVPGCLGNQLEAKLDKPDVVNWMCYRKTEDFFTIWLDLNMFLPLGVDCWIDNTRVVYNRSSGLVSNAPGVQIRVPGFGKTYSVEYLDSSKLAGYLHTLVQNLVNNGYVRDETVRAAPYDWRLEPGQQEEYYRKLAGLVEEMHAAYGKPVFLIGHSLGCLHLLYFLLRQPQAWKDRFIDGFISLGAPWGGSIKPMLVLASGDNQGIPIMSSIKLKEEQRITTTSPWMFPSRMAWPEDHVFISTPSFNYTGRDFQRFFADLHFEEGWYMWLQSRDLLAGLPAPGVEVYCLYGVGLPTPRTYIYDHGFPYTDPVGVLYEDGDDTVATRSTELCGLWQGRQPQPVHLLPLHGIQHLNMVFSNLTLEHINAILLGAYRQGPPASPTASPEPPPPE
notes: enzyme
B1: the adrenal function result in assay [1] is listed as “maintained”. For the same molecule, the “patient's HDL-C measured prior to surgery” value in assay [3] was “above 50 mg/di”.
